Assay results taken from patent US20110183969A1, “ANTIFUNGAL COMBINATION THERAPY” (priority 2008, published 2011).
In brackets after ≈: the same amount, converted by molar mass. Where two headings read alike, the source gives them in different places.

Tests used:
Experiment in all cases: MIC (YAG medium)
Format in all cases: cell-based
[1] = system: Aspergillus fumigatus AF293; details: for MIC: Aspergillus fumigatus
Description: (§1) Between 1 and 5 mgs of compound were accurately weighed out into a sterile Eppendorf tube. The compound was dissolved in DMSO to give a solution containing 5 mg/mL. Tubes were stored at −20° C. until required.
(§2) On the day of testing thawed solutions were vortex mixed to ensure homogeneity. 30 μL of solution was removed and added to 570 μL of sterile water in a separate sterile Eppendorf The thoroughly mixed solution was used to prepare a series of doubling dilutions in water, in a deep well plate. […] replicate plates were prepared using a Minitrak by aspirating 20 μL from each well into eleven clear polystyrene 96 well plates.
(§3) Spores of Aspergillus spp. (Aspergillus fumigatus [two strains], Aspergillus terreus [two strains], Aspergillus niger and Aspergillus flavus) were harvested from cultures grown on Sabarauds agar for 5 days, and resuspended in PBS/Tween 80 to approx 1×10^7 cfu/mL. Other filamentous fungi (Absidia corymbifera, Fusarium solani, Rhizomucor, Scedosporium spp., Trichophyton spp.), were grown on Sabarauds agar for 2-10 days and spores/hyphae resuspended in PBS/Tween to give approx 1×10^7 cfu/mL. Candida species (Candida albicans, Candida glabrata, Candida krusei, Candida parapsilosis and Candida tropicalis) were grown on Sabarauds agar, cells were harvested from the agar using a sterile loop and resuspended in PBS/Tween 80 to approx 1×10^6 cfu/mL. Each organism suspension was diluted in RPMI medium, containing 2% glucose and 0.135 M MOPS buffer (pH 7.0) to 0.5−2×10^4 cfu/mL for Aspergillus spp. and other filamentous fungi and 0.5-2×10^3 cfu/mL for yeast. 80 μL of an organism suspension was added to each well of the plate containing drug dilutions.
(§4) This produced MIC plates with a drug range 50-0.05 mg/L and organism inocula of 1-2×10^4 cfu/mL for Aspergillus spp. and other filamentous fungi and 1-2×10^3 cfu/mL for yeasts. All plates were incubated for 24-48 hrs at 35° C. Growth was assessed by monitoring the optical density at 485 nm for each well. The MIC of a compound is the lowest drug concentration that inhibits growth of an organism by >80% compared with a drug free control. MICs are recorded as mg/L. Other growth media can be used for susceptibility testing, and the activity of the described compounds can also be assessed in a medium comprising 1% glucose, 1% ammonium chloride and 0.5% yeast extract (YAG medium). To perform MIC tests in this medium, dilutions of compounds are prepared in microtitre plates as described above. Fungal strains to be tested are grown and harvested in an identical manner to that described above, each organism suspension is then diluted in YAG medium to 0.5-2×10^4 cfu/mL for Aspergillus spp. and other filamentous fungi and 0.5-2×10^3 cfu/mL for yeast. 80 μL of an organism suspension was added to each well of the plate containing drug dilutions. This produced MIC plates with a drug range 50-0.05 mg/L and organism inocula of 1-2×10^4 cfu/mL for Aspergillus spp. and other filamentous fungi and 1-2×10^3 cfu/mL for yeasts. All plates were incubated for 24 hrs at 35° C. Growth was assessed by monitoring the optical density at 485 nm for each well. The MIC of a compound is the lowest drug concentration that inhibits growth of an organism by >70% compared with a drug free control. MICs are recorded as mg/L. In cases where the MIC of an organism is […] mg/L the MIC is repeated using a concentration range of 0.5-0.0005 mg/L. MIC tests in YAG medium have more clear-cut endpoints and have slightly lower MICs than those performed in RPMI medium.
(§5) The following organisms were tested: Absidia corymbifera, Aspergillus flavus, Aspergillus fumigatus AF293 and AF210, Aspergillus niger, Aspergillus terreus AT4 and AT49, Candida albicans, Candida glabrata, Candida krusei, Candida parapsilosis, Candida tropicalis, Fusarium solani, Rhizomucor sp., Scedosporium apiospermum, Scedosporium prolificans, Trichophyton mentagrophytes, and Trichophyton rubrum.

Aspergillus terreus AT49 = details: for MIC: Aspergillus terreus
Description: as §1, §2, §3, §4, §5

Aspergillus niger = details: for MIC: Aspergillus niger, read-out: MIC A. niger (grade)
Description: as §1, §2, §3, §4, §5

Aspergillus flavus = details: for MIC: Aspergillus flavus, read-out: MIC A. flavus (grade)
Description: as §1, §2, §3, §4, §5

[2] = system: Aspergillus fumigatus AF210; details: for MIC: Aspergillus fumigatus
Description: as §1, §2, §3, §4, §5

Aspergillus terreus AT4 = details: for MIC: Aspergillus terreus
Description: as §1, §2, §3, §4, §5

[3] = YAG medium, MIC banded into grades, AF293, read-out: MIC A. fumigatus (grade)
[4] = YAG medium, MIC banded into grades, AT49, read-out: MIC A. terreus 49 (grade)
[5] = YAG medium, MIC banded into grades
[6] = YAG medium, MIC banded into grades, AF210, read-out: MIC A. fumigatus 210 (grade)
[7] = YAG medium, MIC banded into grades, AT4, read-out: MIC A. terreus (grade)
[8] = YAG medium, MIC banded into grades, AF293
[9] = YAG medium, MIC banded into grades, AT49
[10] = YAG medium, MIC banded into grades, AF210
[11] = YAG medium, MIC banded into grades, AT4
[12] = AF293, read-out: MIC A. fumigatus (grade)
[13] = AT49, read-out: MIC A. terreus 49 (grade)
[14] = AF210, read-out: MIC A. fumigatus 210 (grade)
[15] = AT4, read-out: MIC A. terreus (grade)

Molecule | MIC [1, 3] | MIC (Aspergillus terreus AT49; [4]) | MIC (Aspergillus niger; [5]) | MIC (Aspergillus flavus; [5]) | MIC [2, 6] | MIC (Aspergillus terreus AT4; [7]) | also measured
COCc1cc(N2CCN(c3cc(C)cc(C)n3)CC2)ccc1NC(=O)C(=O)c1c(-c2ccccc2)cc2ccccn12 [Example 83, N-{4-[4-(4,6-Dimethyl-pyridin-2-yl)-piperazin-1-yl]-2-methoxymethyl-phenyl}-2-oxo-2-(2-phenyl-indolizin-3-yl)-acetamide] | < 1 µg/mL | < 1 µg/mL | < 1 µg/mL | < 1 µg/mL | < 1 µg/mL | < 1 µg/mL | 
O=C(Nc1ccc(N2CCN(c3cccc(NCCO)n3)CC2)cc1)C(=O)c1c(-c2ccccc2)cc2ccccn12 [Example 87, N-(4-{4-[6-(2-hydroxyethylamino)-pyridin-2-yl]-piperazin-1-yl}-phenyl)-2-oxo-2-(2-phenyl-indolizin-3-yl)-acetamide] | < 1 µg/mL | < 1 µg/mL | > 10 µg/mL | < 1 µg/mL | 1 to 10 µg/mL (≈ 1.78 to 17.8 µM) | 1 to 10 µg/mL (≈ 1.78 to 17.8 µM) | 
N-(4-{3-[(4,6-Dimethyl-pyridin-2-yl)-methyl-amino]-propyl}-phenyl)-2-oxo-2-(2-phenyl-indolizin-3-yl)-acetamide [Example 70] |  |  |  |  |  |  | MIC A. fumigatus (grade) [1, 8]: 3 (A grade of 3 represents an MIC of less than 1 mg/L); MIC A. terreus 49 (grade) (Aspergillus terreus AT49; [9]): 3 (A grade of 3 represents an MIC of less than 1 mg/L); MIC A. niger (grade) (Aspergillus niger; [5]): 3 (A grade of 3 represents an MIC of less than 1 mg/L); MIC A. flavus (grade) (Aspergillus flavus; [5]): 3 (A grade of 3 represents an MIC of less than 1 mg/L); MIC A. fumigatus 210 (grade) [2, 10]: 3 (A grade of 3 represents an MIC of less than 1 mg/L); MIC A. terreus (grade) (Aspergillus terreus AT4; [11]): 3 (A grade of 3 represents an MIC of less than 1 mg/L)
Cc1cc(C)nc(NCCNc2ccc(NC(=O)C(=O)c3c(-c4ccccc4)cc4ccccn34)cc2)c1 [Example 92, N-{4-[2-(4,6-dimethyl-pyridin-2-yl-amino)-ethylamino]-phenyl}-2-oxo-2-(2-phenyl-indolizin-3-yl)-acetamide] | < 1 µg/mL | < 1 µg/mL | 1 to 10 µg/mL (≈ 1.99 to 19.9 µM) | < 1 µg/mL | < 1 µg/mL | < 1 µg/mL | 
O=C1Cc2cc(NC(=O)C(=O)c3c(-c4ccccc4)cc4ccccn34)ccc2N1 [Example 9, 2-Oxo-N-(2-oxo-2,3-dihydro-1H-indol-5-yl)-2-(2-phenyl-indolizin-3-yl)-acetamide] |  |  |  |  |  |  | MIC [1, 12]: > 10 µg/mL; MIC (Aspergillus terreus AT49; [13]): > 10 µg/mL; MIC (Aspergillus niger): > 10 µg/mL; MIC (Aspergillus flavus): > 10 µg/mL; MIC [2, 14]: > 10 µg/mL; MIC (Aspergillus terreus AT4; [15]): > 10 µg/mL
CCN(CC)C(=O)Oc1cc(-c2ccc(NC(=O)C(=O)c3c(-c4ccccc4)cc4ccccn34)cc2)on1 [Example 27, Diethyl-carbamic acid-5-{4-[2-oxo-2-(2-phenyl-indolizin-3-yl)-acetylamino]-phenyl}-isoxazol-3-yl ester] |  |  |  |  |  |  | MIC [1, 12]: < 1 µg/mL; MIC (Aspergillus terreus AT49; [13]): < 1 µg/mL; MIC (Aspergillus niger): < 1 µg/mL; MIC (Aspergillus flavus): < 1 µg/mL; MIC [2, 14]: < 1 µg/mL; MIC (Aspergillus terreus AT4; [15]): < 1 µg/mL
CN1CCN(c2ccc(NC(=O)C(=O)c3c(-c4ccccc4)cc4ccccn34)cc2-c2ncco2)CC1 [Example 19, N-[4-(4-methyl-piperazin-1-yl)-3-oxazol-2-yl-phenyl]-2-oxo-2-(2-phenyl-indolizin-3-yl)-acetamide] | > 10 µg/mL | 1 to 10 µg/mL (≈ 1.98 to 19.8 µM) | > 10 µg/mL | > 10 µg/mL | > 10 µg/mL | 1 to 10 µg/mL (≈ 1.98 to 19.8 µM) | 
2-Oxo-2-(2-phenyl-indolizin-3-yl)-N-{4-[4-(2-pyridin-yl-ethyl)-perazin-1-yl]-phenyl}-acetamide [Example 36] |  |  |  |  |  |  | MIC A. fumigatus (grade) [1, 8]: 3 (A grade of 3 represents an MIC of less than 1 mg/L); MIC A. terreus 49 (grade) (Aspergillus terreus AT49; [9]): 3 (A grade of 3 represents an MIC of less than 1 mg/L); MIC A. niger (grade) (Aspergillus niger; [5]): 3 (A grade of 3 represents an MIC of less than 1 mg/L); MIC A. flavus (grade) (Aspergillus flavus; [5]): 3 (A grade of 3 represents an MIC of less than 1 mg/L); MIC A. fumigatus 210 (grade) [2, 10]: 3 (A grade of 3 represents an MIC of less than 1 mg/L); MIC A. terreus (grade) (Aspergillus terreus AT4; [11]): 3 (A grade of 3 represents an MIC of less than 1 mg/L)
CC(C)c1nccn1CCOC(=O)C(C)(C)c1cccc(NC(=O)C(=O)c2c(-c3ccccc3)cc3ccccn23)c1 [Example 22, 2-Methyl-2-{3-[2-oxo-2-(2-phenyl-indolizin-3-yl)-acetylamino]-phenyl}-propionic acid 2-(2-isopropyl-imidazol-1-yl)-ethyl ester] | > 10 µg/mL | 1 to 10 µg/mL (≈ 1.78 to 17.8 µM) | > 10 µg/mL | 1 to 10 µg/mL (≈ 1.78 to 17.8 µM) | > 10 µg/mL | 1 to 10 µg/mL (≈ 1.78 to 17.8 µM) | 
Cc1cc(C)nc(N2CCCN(c3ccc(NC(=O)C(=O)c4c(-c5ccccc5)cc5ccccn45)cc3)CC2)c1 [Example 54, N-{4-[4-(4,6-Dimethyl-pyridin-2-yl)-[1,4]diazepan-1-yl]-phenyl}-2-oxo-2-(2-phenyl-indolizin-3-yl)-acetamide] | < 1 µg/mL | < 1 µg/mL | < 1 µg/mL | < 1 µg/mL | < 1 µg/mL | < 1 µg/mL | 
Cc1cc(C)nc(N(C)CCNc2ccc(NC(=O)C(=O)c3c(-c4ccccc4)cc4ccccn34)cc2)c1 [Example 78, N-(4-{2-[(4,6-Dimethyl-pyridin-2-yl)-methyl-amino]-ethylamino}-phenyl)-2-oxo-2-(2-phenyl-indolizin-3-yl)-acetamide] | < 1 µg/mL | < 1 µg/mL | < 1 µg/mL | < 1 µg/mL | < 1 µg/mL | < 1 µg/mL | 
C=C(C)CN1CCN(c2ccc(NC(=O)C(=O)c3c(-c4ccc(N5CCOCC5)cc4)cc4ccccn34)cc2)CC1 [Example 40, N-{4-[4-(2-Methyl-allyl)-piperazin-1-yl]-phenyl}-2-[2-(4-morpholin-4-yl-phenyl)-indolizin-3-yl]-2-oxo-acetamide] | > 10 µg/mL | > 10 µg/mL | > 10 µg/mL | 1 to 10 µg/mL (≈ 1.77 to 17.7 µM) | > 10 µg/mL | > 10 µg/mL | 
Cc1cc(C)nc(N(C)CCCN(C)c2ccc(NC(=O)C(=O)c3c(-c4ccccc4)cc4ccccn34)cc2)c1 [Example 67, N-[4-({3-[(4,6-dimethyl-pyridin-2-yl)-methyl-amino]-propyl}-methyl-amino)-phenyl]-2-oxo-2-(2-phenyl-indolizin-3-yl)-acetamide] | < 1 µg/mL | < 1 µg/mL | < 1 µg/mL | < 1 µg/mL | < 1 µg/mL | < 1 µg/mL | 
CN1CCN(c2oc(-c3ccc(NC(=O)C(=O)c4c(-c5ccccc5)cc5ccccn45)cc3)nc2C(=O)C(F)(F)F)CC1 [Example 29, N-{4-[5-(4-Methyl-piperazin-1-yl)-4-(2,2,2-trifluoro-acetyl)-oxazol-2-yl]-phenyl}-2-oxo-2-(2-phenyl-indolizin-3-yl)-acetamide] | < 1 µg/mL | < 1 µg/mL | < 1 µg/mL | < 1 µg/mL | 1 to 10 µg/mL (≈ 1.66 to 16.6 µM) | < 1 µg/mL | 
